One compound from patent publication US12071431B2, “Pyridin-sulfonamide compounds for the treatment of conditions related to interleukin 1 beta” (ALLINKY BIOPHARMA, priority 2018, dated 2024) can be followed below.

As usually defined, the Kd is the equilibrium constant for the complex coming apart.

For data set [1], the system named is human primary macrophages. Nature of the data set: Cell viability assessment (CellTiter-Glo) in the macrophage assay plates. The conditions noted are these: CellTiter-Glo luminescent assay. The format is cell-based. Also on record: concentration or dose not given beside the values. The method, then: 2×10^5 PBMCs at a total volume of 200 μL/well were plated into a 96-well plate and incubated for 4 hrs at 37° C. in a CO2 incubator to allow the monocytes to settle, leaving the lymphocytes in suspension. Following incubation, 100 μL were aspirated out of each well to ensure removal of the lymphocyte population. The monocytes were differentiated to macrophages by addition of 200 ng/mL of recombinant human GM-CSF (4 mg/mL stock) and incubated at 37° C./5% CO2 for 6 days. The medium was changed every two days by removing half the volume of medium in the well and re-supplementing with fresh RPMI complete medium and recombinant human GM-CSF. Following differentiation, the cells were treated in duplicates with a compound according to the invention in a total volume of 50 μL, maintaining a final DMSO percentile of 0.5%. The plate was transferred to an incubator maintained at 37° C./5% CO2 for 2 hours. The cells were stimulated with 100 ng/mL of LPS (4×) (1 mg/mL stock) in a total volume of 50 μL. The plate was transferred to an incubator maintained at 37° C./5% CO2 for 16 hours. 100 μl/well volume of CellTiter-Glo® luminescent reagent was added to the assay plates and incubated at room temperature for 30 mins on a plate shaker. Following incubation, the luminescent signal of each well was determined using a microplate reader (Perkin Elmer ENVISION 2104). Cytotoxicity of the test compounds was determined utilizing the following formula: % Cytotoxicity=100−(100*(Average Test Compound Counts−Average Negative Control Counts)/(Average Positive Control Counts−Average Negative Control Counts)) All of the “Counts” stated in this formula are derived from “luminescent signal” determined as described for the cytokine viability assessment.
A general note: In ATP-based viability assays light output follows the ATP content of the culture.

For a further data set, the target named is p38 MAPK (Homo sapiens, UniProt Q16539). Nature of the data set: In vitro binding of p38 MAPK, SPRi. The method, then: Example 14—In Vitro Binding of p38 MAPK
Chain of p38 MAPK (Q16539 2-360): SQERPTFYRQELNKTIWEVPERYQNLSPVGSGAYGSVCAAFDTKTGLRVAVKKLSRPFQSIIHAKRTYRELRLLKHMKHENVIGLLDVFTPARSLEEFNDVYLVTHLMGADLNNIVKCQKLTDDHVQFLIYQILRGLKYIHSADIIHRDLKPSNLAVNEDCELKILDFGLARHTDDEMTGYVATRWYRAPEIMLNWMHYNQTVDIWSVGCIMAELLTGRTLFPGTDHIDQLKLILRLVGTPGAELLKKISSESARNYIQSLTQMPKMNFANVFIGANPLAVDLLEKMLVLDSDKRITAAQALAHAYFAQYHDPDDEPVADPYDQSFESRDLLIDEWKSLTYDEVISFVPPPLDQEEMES
Various concentrations of p38 MAPK dissolved in water were manually printed onto a bare gold-coated (thickness 47 nm) PlexArray Nanocapture Sensor Chip (Plexera Bioscience, Seattle, WA, US) at 40% humidity. Each concentration was printed in replicate, and each spot contained 0.2 μL of protein solution. The chip was incubated in 80% humidity at 4° C. for overnight, and rinsed with 10×PBST for 10 min, 1×PBST for 10 min, and deionized water twice for 10 min. The chip was then blocked with 5% (w/v) non-fat milk in water overnight, and washed with 10×PBST for 10 min, 1×PBST for 10 min, and deionized water twice for 10 min before being dried under a stream of nitrogen prior to use.
Surface Plasmon Resonance Imaging (SPRi) measurements were performed with PlexAray HT (Plexera Bioscience, Seattle, WA, US). Collimated light (660 nm) passes through the coupling prism, reflects off the SPR-active gold surface, and is received by the CCD camera. Buffers and samples were injected by a non-pulsatile piston pump into the 30 μL flowcell that was mounted on the coupling prism. Each measurement cycle contained four steps: washing with PBST running buffer at a constant rate of 2 μL/s to obtain a stable baseline, sample injection at 5 μL/s for binding, surface washing with PBST at 2 μL/s for 300 s, and regeneration with 0.5% (v/v) H3PO4 at 2 μL/s for 300 s. All the measurements were performed at 4° C.
The signal changes after binding and washing (in AU) are recorded as the assay value. Selected protein-grafted regions in the SPR images were analyzed, and the average reflectivity variations of the chosen areas were plotted as a function of time. Real-time binding signals were recorded and analyzed by Data Analysis Module (DAM, Plexera Bioscience, Seattle, WA, US). Kinetic analysis was performed using BIAevaluation 4.1 software (Biacore, Inc.).

In data set [2] the test system is Non-Alcoholic Steatohepatitis (NASH) in male C57BL/6 mice. The experiment in a line: Treatment of non-alcoholic steatohepatitis (NASH) in male C57BL/6 mice (streptozotocin + high-fat diet). The class given is in vivo. As for the experimental part:
Example 15: Effect of Compound 5 and 7 in the Treatment of Non-Alcoholic Steatohepatitis (NASH) in Male C57BL/6 Mice
Timed pregnant mice (n=30) were selected for the study. The delivered pups were subcutaneously injected on the post-natal day 2 (PND-2) with 200 μg of Streptozotocin and were allowed to remain with the mother until they reached the weanling age. After weanling, the male pups were selected and fed with 60% kcal fat diet (Research Diet-D12492) for the next 2 weeks. All the animals were observed twice daily for clinical signs.
Mice were dosed with vehicle, test compounds and reference compound (elafibranor) twice daily morning (9.00 AM) and evening before the start of dark cycle (6:00 PM) from day 0 to 28.
Animal body weight measurements were made daily for the complete duration of the experiment.
Animals were dosed for 28 days (from week 6 to 10) with the test and reference compounds.
Blood glucose was estimated before the treatment start and on the termination day 28. Serum ALT and AST levels were measured from the plasma before the treatment start and on day 28.
Histopathology analysis including H&E staining, Masson's trichrome staining and Oil-Red-O (ORO) staining was performed for the liver tissues.
All the H&E stained tissue sections were examined by light microscopy. As per the below grading system (Kleiner et al., 2005) in 200× objective lens, NAFLD scoring was done for steatosis, lobular inflammation and hepatic ballooning.
All the Masson's trichrome stained tissue sections were examined by light microscopy in 100× objective lens. Randomly selected five fields (approx 684.85 μm×917.11 m per field) from each liver were subjected to collagen proportion area measurement by using Image Pro Premier 9.1 software. The percentage of collagen proportion area was calculated by dividing collagen tissue area by total tissue area.
All the Oil-Red-O stained tissue sections were examined by light microscopy in 100× objective lens. Randomly selected five fields (approximately 688.33 μm×922.45 μm per field) from each liver were subjected to measure stained area by using Image Pro Premier 9.1 software. The percentage of stained area was calculated by dividing lipid stained tissue area by total tissue area.

Setting [3] is: 3 mg/kg dose, twice daily, 28 days, H&E NAFLD scoring.

In turn, `CCOc1ccc(Oc2cc(S(=O)(=O)N(C)C)cnc2N2CCC(Oc3ccc(Cl)cc3)CC2)cc1` [Compound 7] displayed a Cell viability in data set [1] of 100%. Moreover, the dissociation constant (Kd) on p38 MAPK (SPRi, 4° C., p38 MAPK, read-out: equilibrium dissociation constant (KD Value)) was 11.9 nM. Moreover, the kon at p38 MAPK (read-out: Ka) stood at 20800 M⁻¹ s⁻¹. In addition, at p38 MAPK (read-out: Kd), the koff is 0.000248 s⁻¹. In addition, the “NAFLD activity score (NAS)” value in data set [2] (3 mg/kg dose, twice daily, 28 days, FIG. 1) is recorded as “better NAS score than Elafibranor”. Moreover, in data set [2] (setting [3]), the “lobular inflammation in the liver” value is recorded as “significantly reduced” and the “steatosis in the liver” value is on record as “significantly reduced”. The “hepatomegaly and liver to body weight ratio” value in data set [2] (28 days of treatment, FIG. 3) is “did not show any hepatomegaly and increase in liver to body weight ratio”. Besides, in data set [2] (after 28 days of treatment, FIG. 2), the “Serum AST levels” value was “significantly reduced”.
